# Molecular target: mitochondrial RNA-polymerase (POLRMT) (Mus musculus, UniProt Q8BKF1)
# Assay: Homogeneous TR-FRET assay for mitochondrial transcription activity
# Type: biochemical
# Settings: homogeneous TR-FRET assay according to Example 4; read-out: mitochondrial transcription activity (IC-50)
# Text: The TR-FRET assay was basically conducted as described in WO 2016/193231A1, especially as described in example 1 (hereby incorporated by reference). With respect to the background of the mitochondrial transcription it is referred to Falkenberg et al. (2002) and Posse et al. (Posse et al. 2015). The method monitors the activity of mitochondrial RNA-polymerase via detection of the formation of its product, a 407 bp long RNA sequence. Detection of the product is facilitated by hybridization of two DNA-oligonucleotide probes to specific and adjacent sequences within the RNA product sequence. Upon annealing of the probes, two fluorophores that are coupled directly to an acceptor nucleotide probe (ATT0647, 5′) or introduced via a coupled streptavidin interacting with a biotinylated donor nucleotide probe on the other side (Europium cryptate, 3) are brought into sufficient proximity to serve as a fluorescence-donor-acceptor pair as generally described in Walters and Namchuk (2003). Thus, a FRET signal at 665 nm is generated upon excitation at 340 nm.
# Briefly, the protocol described here was applied for screening and activity determination in a low-volume 384-well microtiter plate with non-binding surface. For high-throughput application in the 1536-well microtiter plate format, volumes of the reagent mixes were adjusted, maintaining the volumetric ratio. Proteins POLRMT (NM_172551.3), TFAM (NM_009360.4) and TFB2M (NM_008249.4) were diluted from their stocks to working concentrations of 150 nM, 1.8 μM and 330 nM respectively, in a dilution buffer containing 100 mM Tris-HCl pH 8.0, 200 mM NaCl, 10% (v/v) glycerole, 2 mM glutathione (GSH), 0.5 mM EDTA and 0.1 mg/mL BSA. Protein dilutions and template DNA, comprising a pUC18 plasmid encoding the mitochondrial light strand promoter, restriction linearized proximal to the promoter 3′-end (pUC-LSP), were mixed at the twofold final assay-concentration in a reaction buffer, containing 10 mM Tris-HCl pH 7.5, 10 mM MgCl2, 40 mM NaCl, 2 mM GSH, 0.01% (w/v) Tween-20 and 0.1 mg/mL BSA.
# 5 μL of this mix were dispensed, depending on the chosen microtiter plate format, using multi-channel pipettes or a Multidrop® dispenser (Thermo Fisher Scientific, Waltham Mass.) into the wells of a microtiter plate and incubated at room temperature (RT) for 10 min. Chemical compounds under scrutiny in the assay were applied using contact-free acoustic droplet-dispensing (Echo520® Labcyte Inc., Sunnyvale Calif.) from 10 mM compound stocks in 100% DMSO, to a final concentration of 10 μM or in serial dilution series of the required concentration range. Equal amounts of DMSO without any compound were added to positive control samples, followed by an incubation step at RT for 10 min.
# The enzymatic reaction was started by the addition of 5 μL of a mix of dNTPs in reaction buffer to a final concentration of 500 μM each. No nucleotide mix was added to negative control samples. The content of the wells was mixed using a VarioTeleshaker™ (Thermo Fisher Scientific, Waltham Mass.) at 1500 rpm for 45 sec after which the microtiter plate was centrifuged at 500×g for 1 min. The samples were incubated for 2 h at RT with humidity control to avoid evaporation. The detection reagents were prepared in a buffer that was composed, such that the enzymatic reaction was terminated due to chelating of Mg-ions and increased ionic strength, containing 50 mM Tris-HCl pH 7.5, 700 mM NaCl, 20 mM EDTA, and 0.01% (w/v) Tween-20. Importantly Eu-cryptate-coupled streptavidin had to be preincubated with a 100-fold molar excess of a random sequence oligonucleotide for 10 min at RT in the dark to block unspecific binding of single stranded RNA to the protein. Subsequently, the blocked streptavidin(-Eu) was mixed with the DNA-probes on ice and kept away from light until use. […]
# Chain of mitochondrial RNA-polymerase (POLRMT) (Q8BKF1 42-1207): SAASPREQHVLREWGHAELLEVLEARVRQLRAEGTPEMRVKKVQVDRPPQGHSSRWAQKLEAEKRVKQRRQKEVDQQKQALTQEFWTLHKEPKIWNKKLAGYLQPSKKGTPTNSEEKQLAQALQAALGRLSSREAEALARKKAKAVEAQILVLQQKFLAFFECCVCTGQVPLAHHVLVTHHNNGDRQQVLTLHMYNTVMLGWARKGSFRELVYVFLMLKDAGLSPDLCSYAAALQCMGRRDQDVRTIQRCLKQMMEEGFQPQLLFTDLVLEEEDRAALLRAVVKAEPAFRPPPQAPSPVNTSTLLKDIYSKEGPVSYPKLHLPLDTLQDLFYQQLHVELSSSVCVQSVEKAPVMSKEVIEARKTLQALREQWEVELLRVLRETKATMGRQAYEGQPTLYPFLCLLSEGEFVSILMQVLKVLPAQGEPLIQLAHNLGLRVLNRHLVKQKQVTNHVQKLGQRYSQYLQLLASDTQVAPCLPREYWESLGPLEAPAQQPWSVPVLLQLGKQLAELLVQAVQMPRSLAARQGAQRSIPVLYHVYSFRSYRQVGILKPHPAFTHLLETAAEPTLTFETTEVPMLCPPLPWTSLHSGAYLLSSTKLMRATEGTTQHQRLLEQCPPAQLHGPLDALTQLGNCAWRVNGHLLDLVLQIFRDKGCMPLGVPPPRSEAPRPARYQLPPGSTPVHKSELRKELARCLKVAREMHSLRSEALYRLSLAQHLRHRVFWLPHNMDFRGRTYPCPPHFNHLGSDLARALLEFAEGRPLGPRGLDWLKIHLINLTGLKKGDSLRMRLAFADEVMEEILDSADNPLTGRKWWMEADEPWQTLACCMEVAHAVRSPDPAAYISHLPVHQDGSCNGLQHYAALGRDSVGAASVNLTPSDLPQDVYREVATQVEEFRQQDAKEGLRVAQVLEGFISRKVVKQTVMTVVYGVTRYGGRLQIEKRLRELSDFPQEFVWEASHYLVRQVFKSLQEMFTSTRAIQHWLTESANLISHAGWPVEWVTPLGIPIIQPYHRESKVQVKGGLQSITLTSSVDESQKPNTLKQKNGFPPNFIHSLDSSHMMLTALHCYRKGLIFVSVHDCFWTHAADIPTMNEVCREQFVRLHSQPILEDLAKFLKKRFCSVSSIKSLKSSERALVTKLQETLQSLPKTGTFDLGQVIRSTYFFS
row,SMILES,IC50 [nM]
1,"C[C@@H](Oc1ccc2c(-c3ccccc3)cc(=O)oc2c1)C(=O)N1CCC[C@H](C(=O)O)C1 [Compound 21, (3S)-1-[(2R)-2-(2-oxo-4-phenyl-chromen-7-yl)oxypropanoyl]piperidine-3-carboxylic acid]",100 to 1000
2,"O=C(COc1ccc2c(-c3ccccc3)cc(=O)oc2c1)Nc1ccccn1 [Compound 22, 2-(2-oxo-4-phenyl-chromen-7-yl)oxy-N-(2-pyridyl)acetamide]",100 to 1000
3,"COC(=O)C1CCCN(C(=O)COc2ccc3c(-c4ccccc4)cc(=O)oc3c2)C1 (stereo not shown) [Compound 23, methyl 1-[2-(2-oxo-4-phenyl-chromen-7-yl)oxyacetyl]piperidine-3-carboxylate]",1000 to 10000
4,"CC(Oc1ccc2c(-c3ccccc3)cc(=O)oc2c1)C(=O)Oc1ccccc1 (stereo not shown) [Compound 24, phenyl 2-(2-oxo-4-phenyl-chromen-7-yl)oxypropanoate]",1000 to 10000
5,"CC(Oc1ccc2c(-c3ccccc3)cc(=O)oc2c1)C(=O)Nc1ccccc1 (stereo not shown) [Compound 25, 2-(2-oxo-4-phenyl-chromen-7-yl)oxy-N-phenyl-propanamide]",100 to 1000
6,"CNC(=O)C(C)Oc1ccc2c(-c3ccccc3)cc(=O)oc2c1 (stereo not shown) [Compound 26, N-methyl-2-(2-oxo-4-phenyl-chromen-7-yl)oxy-propanamide]",100 to 1000
7,"CC(Oc1cc2oc(=O)cc(-c3ccccc3)c2cc1Cl)C(=O)NCC(O)c1ccccc1 (stereo not shown) [Compound 27, 2-(6-chloro-2-oxo-4-phenyl-chromen-7-yl)oxy-N-(2-hydroxy-2-phenyl-ethyl)propanamide]",1000 to 10000
8,"CC(Oc1cc2oc(=O)cc(-c3ccccc3)c2cc1Cl)C(=O)Nc1ccc(CCCO)cc1 (stereo not shown) [Compound 28, 2-(6-chloro-2-oxo-4-phenyl-chromen-7-yl)oxy-N-[4-(3-hydroxypropyl)phenyl]propanamide]",100 to 1000
9,"CC(Oc1ccc2c(-c3ccccc3)cc(=O)oc2c1)C(=O)NCC(O)c1ccccc1 (stereo not shown) [Compound 29, N-(2-hydroxy-2-phenyl-ethyl)-2-(2-oxo-4-phenyl-chromen-7-yl)oxy-propanamide]",1000 to 10000
10,"CCOC(=O)[C@H]1CCCN(C(=O)[C@@H](C)Oc2ccc3c(-c4ccccc4)cc(=O)oc3c2)C1 [Compound 35, ethyl (3S)-1-[(2R)-2-(2-oxo-4-phenyl-chromen-7-yl)oxypropanoyl]piperidine-3-carboxylate]",100 to 1000
11,"CC(Oc1ccc2c(-c3ccccc3)cc(=O)oc2c1)C(=O)N1CCC[C@H](C(=O)O)C1 (stereo partly drawn) [Compound 36, (3S)-1-[2-(2-oxo-4-phenyl-chromen-7-yl)oxypropanoyl]piperidine-3-carboxylic acid]",100 to 1000
12,"CC(Oc1ccc2c(-c3ccccc3)cc(=O)oc2c1)C(=O)N1CCC[C@@H](C(=O)O)C1 (stereo partly drawn) [Compound 37, (3R)-1-[2-(2-oxo-4-phenyl-chromen-7-yl)oxypropanoyl]piperidine-3-carboxylic acid]",1000 to 10000
13,"COC(=O)[C@@H]1CCCN(C(=O)C(C)Oc2ccc3c(-c4ccccc4)cc(=O)oc3c2)C1 (stereo partly drawn) [Compound 38, methyl (3R)-1-[2-(2-oxo-4-phenyl-chromen-7-yl)oxypropanoyl]piperidine-3-carboxylate]",1000 to 10000
14,"CC(Oc1ccc2c(-c3ccccc3)cc(=O)oc2c1)C(=O)N1CCCCC1 (stereo not shown) [Compound 39, 7-[1-methyl-2-oxo-2-(1-piperidyl)ethoxy]-4-phenyl-chromen-2-one]",100 to 1000
15,"CN(C(=O)COc1ccc2c(-c3ccccc3)cc(=O)oc2c1)c1ccc(CCO)cc1 [Compound 40, N-[4-(2-hydroxyethyl)phenyl]-N-methyl-2-(2-oxo-4-phenyl-chromen-7-yl)oxy-acetamide]",100 to 1000
16,"CCOC(=O)C(C)Oc1ccc2c(-c3ccc(Br)cc3)cc(=O)oc2c1 (stereo not shown) [Compound 41, ethyl 2-[4-(4-bromophenyl)-2-oxo-chromen-7-yl]oxypropanoate]",100 to 1000
17,"CC(Oc1cc2oc(=O)cc(-c3ccccc3)c2cc1Cl)C(=O)NCc1ccco1 (stereo not shown) [Compound 42, 2-(6-chloro-2-oxo-4-phenyl-chromen-7-yl)oxy-N-(2-furylmethyl)propanamide]",100 to 1000

row,SMILES,IC50 [nM]
1,"CCOC(=O)C1CCCN(C(=O)COc2ccc3c(-c4ccccc4)cc(=O)oc3c2)C1 (stereo not shown) [Compound 43, ethyl 1-[2-(2-oxo-4-phenyl-chromen-7-yl)oxyacetyl]piperidine-3-carboxylate]",1000 to 10000
2,"CC(C)(C)OC(=O)COc1ccc2c(-c3ccccc3)cc(=O)oc2c1 [Compound 44, tert-butyl 2-(2-oxo-4-phenyl-chromen-7-yl)oxyacetate]",100 to 1000
3,"O=C(COc1cc2oc(=O)cc(-c3ccccc3)c2cc1Cl)N1CCOCC1 [Compound 45, 6-chloro-7-(2-morpholino-2-oxo-ethoxy)-4-phenyl-chromen-2-one]",1000 to 10000
4,"O=C(COc1cc2oc(=O)cc(-c3ccccc3)c2cc1Cl)NC1CC1 [Compound 46, 2-(6-chloro-2-oxo-4-phenyl-chromen-7-yl)oxy-N-cyclopropyl-acetamide]",100 to 1000
5,"CCN(CC)C(=O)COc1cc2oc(=O)cc(-c3ccccc3)c2cc1Cl [Compound 47, 2-(6-chloro-2-oxo-4-phenyl-chromen-7-yl)oxy-N,N-diethyl-acetamide]",100 to 1000
6,"CCN(CC)C(=O)COc1ccc2c(-c3ccccc3)cc(=O)oc2c1 [Compound 48, N,N-diethyl-2-(2-oxo-4-phenyl-chromen-7-yl)oxy-acetamide]",1000 to 10000
7,"CCOC(=O)COc1cc2oc(=O)cc(-c3ccccc3)c2cc1Cl [Compound 49, ethyl 2-(6-chloro-2-oxo-4-phenyl-chromen-7-yl)oxyacetate]",100 to 1000
8,"CCOC(=O)C(C)Oc1cc2oc(=O)cc(-c3ccccc3)c2cc1Cl (stereo not shown) [Compound 50, ethyl 2-(6-chloro-2-oxo-4-phenyl-chromen-7-yl)oxypropanoate]",100 to 1000
9,"CC(Oc1ccc2c(-c3ccccc3)cc(=O)oc2c1)C(=O)O (stereo not shown) [Compound 51, 2-(2-oxo-4-phenyl-chromen-7-yl)oxypropanoic acid]",100 to 1000
10,"O=C(O)C1CCCN(C(=O)COc2ccc3c(-c4ccccc4)cc(=O)oc3c2)C1 (stereo not shown) [Compound 54, 1-[2-(2-oxo-4-phenyl-chromen-7-yl)oxyacetyl]piperidine-3-carboxylic acid]",100 to 1000
11,"CC(Oc1ccc2c(-c3ccccc3)cc(=O)oc2c1)C(=O)Nc1cccnc1 (stereo not shown) [Compound 55, 2-(2-oxo-4-phenyl-chromen-7-yl)oxy-N-(3-pyridyl)propanamide]",1000 to 10000
12,"COC(=O)C(C)Oc1ccc2c(-c3ccccc3)cc(=O)oc2c1 (stereo not shown) [Compound 56, methyl 2-(2-oxo-4-phenyl-chromen-7-yl)oxypropanoate]",100 to 1000
13,"O=C(COc1cc2oc(=O)cc(-c3ccccc3)c2cc1Cl)Nc1ccc(CCO)cc1 [Compound 57, 2-(6-chloro-2-oxo-4-phenyl-chromen-7-yl)oxy-N-[4-(2-hydroxyethyl)phenyl]acetamide]",100 to 1000
14,"COC(=O)C(C)Oc1cc2oc(=O)cc(-c3ccccc3)c2cc1Cl (stereo not shown) [Compound 58, methyl 2-(6-chloro-2-oxo-4-phenyl-chromen-7-yl)oxypropanoate]",100 to 1000
15,"O=C(COc1cc2oc(=O)cc(-c3ccccc3)c2cc1Cl)NCc1cccnc1 [Compound 59, 2-(6-chloro-2-oxo-4-phenyl-chromen-7-yl)oxy-N-(3-pyridylmethyl)acetamide]",1000 to 10000
16,"CC(Oc1ccc2c(-c3ccccc3)cc(=O)oc2c1)C(=O)N1CCCC(C(N)=O)C1 (stereo not shown) [Compound 60, 1-[2-(2-oxo-4-phenyl-chromen-7-yl)oxypropanoyl]piperidine-3-carboxamide]",1000 to 10000
17,"CC(Oc1ccc2c(-c3ccccc3)cc(=O)oc2c1)C(=O)Nc1ccncc1 (stereo not shown) [Compound 61, 2-(2-oxo-4-phenyl-chromen-7-yl)oxy-N-(4-pyridyl)propanamide]",1000 to 10000

# Reference: patent US10703735B2, “4-phenyl-coumarin derivatives, processes for their preparation and uses thereof for the treatment of cancer” (Lead Discovery Center GmbH, priority 2018, dated 2020)
